In ChEMBL document CHEMBL1152284, “The contribution of plukenetione A to the anti-tumoral activity of Cuban propolis” (Bioorg Med Chem, 2008):
Converted amounts (≈) assume the structure as drawn. The source made the active and inactive calls. The rule behind the calls is not given here.

Legend:
[1] = Antimetastatic activity in mouse EAC cells xenografted in NMRI mouse assessed as metastatic colony formation in lungs at 20 mg/kg, ip daily for 9 days relative to control; assay type: functional, Ehrlich; details: route intraperitoneal
[2] = Cytotoxicity against human LAN1 cells after 24 hrs; assay type: functional, cell-based; details: LAN1, 24 h
[3] = Cytotoxicity against cisplatin-resistant human LAN1 cells after 24 hrs; assay type: functional, cell-based; details: LAN1, 24 h
HEK293 = assay: Cytotoxicity against HEK293 cells after 24 hrs; assay type: cell-based; details: Homo sapiens, HEK293, 24 h
MCF7 [4] = assay: Cytotoxicity against human MCF7 cells after 24 hrs; assay type: functional, cell-based; details: MCF7, 24 h
[5] = Cytotoxicity against 5-FU-resistant human LAN1 cells after 24 hrs; assay type: functional, cell-based; details: LAN1, 24 h
MCF7 [6] = assay: Cytotoxicity against doxorubicin-resistant human MCF7 cells after 24 hrs; assay type: functional, cell-based; details: MCF7, 24 h
[7] = Cytotoxicity against etoposide-resistant human LAN1 cells after 24 hrs; assay type: functional, cell-based; details: LAN1, 24 h
HCT-8 [8] = assay: Cytotoxicity against human HCT8 cells after 24 hrs; assay type: functional, cell-based; details: HCT-8, 24 h
MCF7 [9] = assay: Cytotoxicity against 5-FU-resistant human MCF7 cells after 24 hrs; assay type: functional, cell-based; details: MCF7, 24 h
NCI-H460 = assay: Cytotoxicity against human H460 cells after 24 hrs; assay type: functional, cell-based; details: NCI-H460, 24 h
[10] = Cytotoxicity against human […] cells after 24 hrs; assay type: cell-based
HCT-8 [11] = assay: Cytotoxicity against raltitrexed-resistant human HCT8 cells after 24 hrs; assay type: functional, cell-based; details: HCT-8, 24 h
[12] = Cytotoxicity against human M51 cells after 24 hrs; assay type: functional, cell-based; details: M51, 24 h
LNCaP [13] = assay: Cytotoxicity against human LNCAP cells after 24 hrs; assay type: functional, cell-based
PC-3 = assay: Cytotoxicity against human PC3 cells after 24 hrs; assay type: functional, cell-based; details: PC-3, 24 h
HT-29 [14] = assay: Cytotoxicity against SN38-resistant human HT-29 cells after 24 hrs; assay type: functional, cell-based; details: HT-29, 24 h
HT-29 [15] = assay: Cytotoxicity against human HT-29 cells after 24 hrs; assay type: functional, cell-based; details: HT-29, 24 h
A2780 [16] = assay: Cytotoxicity against doxorubicin-resistant human A2780 cells after 24 hrs; assay type: functional, cell-based; details: A2780, 24 h
Jurkat = assay: Cytotoxicity against human Jurkat cells after 24 hrs; assay type: functional, cell-based
A2780 [17] = assay: Cytotoxicity against human A2780 cells after 24 hrs; assay type: functional, cell-based; details: A2780, 24 h
HT-29 [18] = assay: Cytotoxicity against 5-FU-resistant human HT-29 cells after 24 hrs; assay type: functional, cell-based; details: HT-29, 24 h
[19] = Cytotoxicity against cisplatin-resistant human M51 cells after 24 hrs; assay type: functional, cell-based; details: M51, 24 h
LNCaP [20] = assay: Cytotoxicity against etoposide-resistant human LNCAP cells after 24 hrs; assay type: functional, cell-based
K562 = assay: Cytotoxicity against human K562 cells after 24 hrs; assay type: functional, cell-based; details: K562, 24 h
A2780 [21] = assay: Cytotoxicity against cisplatin-resistant human A2780 cells after 24 hrs; assay type: functional, cell-based; details: A2780, 24 h
HCT-8 [22] = assay: Cytotoxicity against SN38-resistant human HCT8 cells after 24 hrs; assay type: functional, cell-based; details: HCT-8, 24 h
[23] = Inhibition of HIV reverse transcriptase; set-up: species or system Human immunodeficiency virus
HCT-8 [24] = assay: Cell cycle arrest in human HCT8 cells assessed as accumulation at G2/M phase at IC50 after 24 hrs by FACS analysis relative to control; assay type: functional
[25] = Inhibition of Moloney murine leukemia virus reverse transcriptase
HCT-8 [26] = assay: Decrease in topoisomerase 2 beta gene expression in human HCT8 cells at 2.5 times IC50 after 24 hrs by RT-PCR; assay type: functional, cell-based
HCT-8 [27] = assay: Cell cycle arrest in human HCT8 cells assessed as accumulation at G0/G1 phase at IC50 after 24 hrs by FACS analysis relative to control; assay type: functional
[28] = target: DNA polymerase I, thermostable (Thermus aquaticus, UniProt P19821); assay: Inhibition of Taq DNA polymerase
HCT-8 [29] = assay: Induction of late apoptosis in [14C]D-thymidine labeled human HCT8 cells assessed DNA fragmentation treated at 2.5 times IC50 for 8 hrs measured after 24 hrs by liquid scintillation counter; assay type: functional, cell-based
HCT-8 [30] = assay: Induction of late apoptosis in [14C]D-thymidine labeled human HCT8 cells assessed DNA fragmentation treated at 10 times IC50 for 8 hrs measured after 24 hrs by liquid scintillation counter; assay type: functional, cell-based
HCT-8 [31] = assay: Decrease in multidrug-resistant related protein gene expression in human HCT8 cells at 2.5 times IC50 after 24 hrs by RT-PCR; assay type: functional, cell-based
[32] = target: T1, DNA topoisomerase 1 (Homo sapiens) (UniProt P11387); assay: Inhibition of human topoisomerase 1-mediated relaxation of supercoiled pBR322 DNA up to 12.5 ug/mL after 30 mins by agarose gel electrophoresis
T1 sequence (whole entry): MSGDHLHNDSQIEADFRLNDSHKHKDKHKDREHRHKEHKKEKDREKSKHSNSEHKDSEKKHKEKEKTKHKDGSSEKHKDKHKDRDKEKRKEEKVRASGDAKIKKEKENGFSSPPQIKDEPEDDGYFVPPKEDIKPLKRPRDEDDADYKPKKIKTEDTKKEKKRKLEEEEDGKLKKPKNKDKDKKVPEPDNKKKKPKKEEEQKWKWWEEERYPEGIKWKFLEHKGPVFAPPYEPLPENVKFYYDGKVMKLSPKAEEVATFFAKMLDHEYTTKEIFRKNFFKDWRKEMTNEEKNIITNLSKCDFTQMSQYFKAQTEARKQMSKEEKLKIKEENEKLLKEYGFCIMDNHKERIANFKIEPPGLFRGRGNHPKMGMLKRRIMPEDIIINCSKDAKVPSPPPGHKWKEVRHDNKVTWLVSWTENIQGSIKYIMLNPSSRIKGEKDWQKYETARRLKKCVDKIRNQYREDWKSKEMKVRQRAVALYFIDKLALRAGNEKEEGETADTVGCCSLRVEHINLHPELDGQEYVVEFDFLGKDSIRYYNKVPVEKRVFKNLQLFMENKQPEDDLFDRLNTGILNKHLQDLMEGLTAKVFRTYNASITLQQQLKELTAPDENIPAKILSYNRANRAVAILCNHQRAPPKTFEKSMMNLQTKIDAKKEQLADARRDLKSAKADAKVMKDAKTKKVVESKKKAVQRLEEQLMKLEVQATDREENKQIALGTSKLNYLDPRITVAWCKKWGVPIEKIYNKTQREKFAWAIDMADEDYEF

HCT-8 [33] = assay: Cell cycle arrest in human HCT8 cells assessed as accumulation at S phase at IC50 after 24 hrs by FACS analysis relative to control; assay type: functional
[34] = target: T1, DNA topoisomerase 1 (Homo sapiens); assay: Inhibition of human topoisomerase 1-mediated relaxation of supercoiled pBR322 DNA up to 6.25 ug/mL after 30 mins by agarose gel electrophoresis
HCT-8 [35] = assay: Decrease in EGF receptor gene expression in human HCT8 cells at 2.5 times IC50 after 24 hrs by RT-PCR; assay type: functional, cell-based

Chain of DNA polymerase I, thermostable (P19821 whole entry, the tested form may be a part): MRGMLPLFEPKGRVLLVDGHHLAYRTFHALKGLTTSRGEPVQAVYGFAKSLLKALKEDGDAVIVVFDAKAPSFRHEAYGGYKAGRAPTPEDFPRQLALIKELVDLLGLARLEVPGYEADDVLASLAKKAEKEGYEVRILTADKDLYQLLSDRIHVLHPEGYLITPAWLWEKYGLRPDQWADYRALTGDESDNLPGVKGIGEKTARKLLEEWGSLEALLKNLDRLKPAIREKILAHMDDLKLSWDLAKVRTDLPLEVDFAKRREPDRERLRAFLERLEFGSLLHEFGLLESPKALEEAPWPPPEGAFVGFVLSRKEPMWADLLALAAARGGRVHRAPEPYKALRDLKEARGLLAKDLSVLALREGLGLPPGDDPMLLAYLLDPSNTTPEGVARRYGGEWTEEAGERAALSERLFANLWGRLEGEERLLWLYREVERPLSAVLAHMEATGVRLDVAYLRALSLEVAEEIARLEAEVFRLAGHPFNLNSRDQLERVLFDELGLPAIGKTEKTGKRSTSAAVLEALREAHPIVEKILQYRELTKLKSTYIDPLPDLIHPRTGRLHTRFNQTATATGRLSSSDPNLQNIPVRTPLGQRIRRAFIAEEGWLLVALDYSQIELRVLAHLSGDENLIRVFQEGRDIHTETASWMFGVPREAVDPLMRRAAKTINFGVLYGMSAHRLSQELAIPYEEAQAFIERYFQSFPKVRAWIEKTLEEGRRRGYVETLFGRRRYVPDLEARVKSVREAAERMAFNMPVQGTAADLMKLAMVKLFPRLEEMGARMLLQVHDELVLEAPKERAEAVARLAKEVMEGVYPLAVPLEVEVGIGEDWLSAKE

SMILES | IC50 [2] [µg/mL] | IC50 [3] [µg/mL] | IC50 (HEK293) [µg/mL] | IC50 (MCF7 [4]) [µg/mL] | IC50 [5] [µg/mL] | IC50 (MCF7 [6]) [µg/mL] | IC50 [7] [µg/mL] | IC50 (HCT-8 [8]) [µg/mL] | IC50 (MCF7 [9]) [µg/mL] | IC50 (NCI-H460) [µg/mL] | IC50 [10] [µg/mL] | IC50 (HCT-8 [11]) [µg/mL] | IC50 [12] [µg/mL] | IC50 (LNCaP [13]) [µg/mL] | IC50 (HT-29 [14]) [µg/mL] | IC50 (HT-29 [15]) [µg/mL] | IC50 (A2780 [16]) [µg/mL] | IC50 (Jurkat) [µg/mL] | IC50 (A2780 [17]) [µg/mL] | IC50 (HT-29 [18]) [µg/mL] | also measured
O=c1[nH]cc(F)c(=O)[nH]1 [FLUOROURACIL] | – | – | – | – | – | – | – | – | – | – | – | – | – | – | – | – | – | – | – | – | Activity [1]: 23.8%
COc1ccc([C@H]2COc3cc(O)ccc3C2)c(OC)c1O [MUCRONULATOL] | 10.1 (≈ 33.4 µM) | 10.2 (≈ 33.8 µM) | 2.5 (≈ 8.27 µM) | 2.52 (≈ 8.34 µM) | 8.22 (≈ 27.2 µM) | > 50 | > 50 | 2.6 (≈ 8.6 µM) | – | – | – | – | – | – | – | – | – | – | – | – | –
CC(C)=CCC1=C(O)[C@@]2(C(=O)c3ccccc3)C(=O)[C@](CC=C(C)C)(C[C@H](CC=C(C)C)C2(C)C)C1=O | 8.2 (≈ 16.3 µM) | 8.44 (≈ 16.8 µM) | 4.2 (≈ 8.35 µM) | 4.37 (≈ 8.69 µM) | 8.24 (≈ 16.4 µM) | 4.28 (≈ 8.51 µM) | 9.18 (≈ 18.3 µM) | 4.23 (≈ 8.41 µM) | 3.3 (≈ 6.56 µM) | 4.21 (≈ 8.37 µM) | 21.7 (≈ 43.2 µM) | 4.44 (≈ 8.83 µM) | 5.7 (≈ 11.3 µM) | 2.12 (≈ 4.22 µM) | 3.5 (≈ 6.96 µM) | 5.25 (≈ 10.4 µM) | 6.75 (≈ 13.4 µM) | 4.6 (≈ 9.15 µM) | 9.2 (≈ 18.3 µM) | 5.18 (≈ 10.3 µM) | IC50 (PC-3): 2.01 µg/mL (≈ 4 µM); IC50 [19]: 4.77 µg/mL (≈ 9.49 µM); IC50 (LNCaP [20]): 1.81 µg/mL (≈ 3.6 µM); IC50 (K562): 4.2 µg/mL (≈ 8.35 µM); IC50 (A2780 [21]): 6.23 µg/mL (≈ 12.4 µM); IC50 (HCT-8 [22]): 4.07 µg/mL (≈ 8.1 µM)
CC(C)=CC[C@]12C[C@@H]3[C@H](C=C(C)C)[C@](CC=C(C)C)(C1=O)C(=O)[C@](C(=O)c1ccccc1)(C2=O)C3(C)C [PLUKENETIONE A] | – | – | 32.1 (≈ 64.1 µM) | 16.3 (≈ 32.5 µM) | – | 15 (≈ 29.9 µM) | – | 12.9 (≈ 25.8 µM) | 10 (≈ 20 µM) | 13.4 (≈ 26.8 µM) | 15.7 (≈ 31.4 µM) | 12.1 (≈ 24.2 µM) | 6.53 (≈ 13 µM) | 1.98 (≈ 3.95 µM) | 13.3 (≈ 26.6 µM) | 12 (≈ 24 µM) | 14.5 (≈ 28.9 µM) | 5.28 (≈ 10.5 µM) | 13.3 (≈ 26.6 µM) | 14.2 (≈ 28.4 µM) | IC50 [23]: 1.5 µg/mL (≈ 3 µM); Activity (HCT-8 [24]): 20.6%; IC50 [25]: 1.5 µg/mL (≈ 3 µM); Activity (HCT-8 [26]): Active; Activity (HCT-8 [27]): 52.1%; IC50 [28]: 12.5 µM; Activity (HCT-8 [29]): Active; Activity (HCT-8 [30]): Active; IC50 [19]: 7.6 µg/mL (≈ 15.2 µM); IC50 (LNCaP [20]): 1.72 µg/mL (≈ 3.44 µM); Activity (HCT-8 [31]): Active; Activity [32]: Active; Activity (HCT-8 [33]): 4.3%; IC50 (A2780 [21]): 15.9 µg/mL (≈ 31.8 µM); Activity [34]: Active; Activity (HCT-8 [35]): Active; IC50 (HCT-8 [22]): 11.7 µg/mL (≈ 23.3 µM)
